Reference: patent US20250134907A1, “FUSED DIAZEPINES AS AGONISTS OF THE INSULIN-LIKE 3 (INSL3) PEPTIDE RECEPTOR RXFP2 AND METHODS OF USE THEREOF” (The United States of America,as represented by the …, priority 2022, published 2025)

Biological target: T1, RXFP2 (Homo sapiens, UniProt Q8WXD0)
T1 construct: expressed in transfected cells
Assay: HTRF cAMP assay in HEK293T cells stably expressing RXFP2 (HEK-RXFP2)
Type: cell-based
Settings: for % EFF vs. 100 nM INSL3 (c): normalized to 100 nM INSL3 cAMP response; for % EFF vs. 1 nM INSL3 (b): normalized to 1 nM INSL3 cAMP response; for % EFF vs. 1 nM INSL3 (a): maximum cAMP response normalized to 1 nM INSL3 response
Description: Compound efficacy and EC50 were determined by measuring cAMP induction in vitro. HEK293T cells stably expressing RXFP2 (HEK-RXFP2) produce cAMP when RXFP2 is activated, which can be measured in an antibody-based immunoassay utilizing a fluorescent readout (cAMP Gs HiRange Kit, PerkinElmer, Waltham, MA). HEK-RXFP2 cells were seeded in 96-well plates in serum-free DMEM and incubated overnight at 37° C., 5% CO2. Plates were then treated with a compound titration up to 25 μM or INSL3 control, in the presence of isobutylmethylxanthine phosphodiesterase inhibitor (IBMX) at 200 μM to amplify the cAMP signal, for 1 hour at 37° C., 5% CO2 before being processed as per kit instructions. Table 7 lists the efficacy and EC50 of compounds tested under different experimental conditions. […] In condition (a), 20,000 cells were seeded per well in the 96 well plate, and efficacy was determined by normalizing the maximum compound cAMP response to the 1 nM INSL3 cAMP response (% Efficacy 1 nM INSL3 (a)). In condition (b), 10,000 cells were seeded per well, and compound response was normalized to the 1 nM INSL3 cAMP response (% Efficacy 1 nM INSL3 (b)). In condition (c), 7,500 cells were seeded per well, compound response was normalized to the 100 nM INSL3 cAMP response, and IBMX was omitted (% Efficacy 100 nM INSL3 (c)). A range is given when compounds were tested multiple times. Where compounds were tested under multiple experimental conditions, the EC50 listed for the corresponding condition is marked (a) through (c) to correlate. When EC50 could not be calculated from the dose-response curve, EC50 is listed as not determined (ND).

[1] = condition (c): 7,500 cells/well, IBMX omitted
[2] = condition (b): 10,000 cells/well, IBMX 200 μM
[3] = condition (a): 20,000 cells/well, IBMX 200 μM

T1 sequence (Q8WXD0 whole entry): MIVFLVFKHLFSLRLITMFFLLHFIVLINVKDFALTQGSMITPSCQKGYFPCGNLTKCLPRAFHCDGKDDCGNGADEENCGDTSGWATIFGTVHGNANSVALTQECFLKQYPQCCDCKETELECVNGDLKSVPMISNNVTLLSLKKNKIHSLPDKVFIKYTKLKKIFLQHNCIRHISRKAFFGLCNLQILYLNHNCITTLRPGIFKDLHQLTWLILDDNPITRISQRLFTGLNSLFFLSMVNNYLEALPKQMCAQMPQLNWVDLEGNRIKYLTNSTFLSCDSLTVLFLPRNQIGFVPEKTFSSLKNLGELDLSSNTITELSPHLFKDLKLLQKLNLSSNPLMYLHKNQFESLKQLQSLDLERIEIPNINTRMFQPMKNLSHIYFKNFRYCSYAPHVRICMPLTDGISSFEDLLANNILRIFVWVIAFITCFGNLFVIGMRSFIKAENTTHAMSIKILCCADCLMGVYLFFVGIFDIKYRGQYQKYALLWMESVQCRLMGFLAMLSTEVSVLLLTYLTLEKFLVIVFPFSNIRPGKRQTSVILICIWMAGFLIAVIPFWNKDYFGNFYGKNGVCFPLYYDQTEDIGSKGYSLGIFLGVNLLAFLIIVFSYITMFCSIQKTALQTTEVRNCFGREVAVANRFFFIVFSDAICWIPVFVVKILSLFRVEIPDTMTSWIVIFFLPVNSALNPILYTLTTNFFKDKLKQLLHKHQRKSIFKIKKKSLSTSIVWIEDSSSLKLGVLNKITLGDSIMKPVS

Cc1cc(OC(F)(F)F)ccc1OCC(=O)N1CCN2C(=O)c3cc(-c4cccc(C(F)F)c4)ccc3NC(=O)[C@@H]2C1 [Example 180, (S)-8-(3-(difluoromethyl)phenyl)-2-(2-(2-methyl-4-(trifluoromethoxy)phenoxy)acetyl)-1,3,4,12a-tetrahydrobenzo[e]pyrazino[1,2-a][1,4]diazepine-6,12 (2H, 11H)-dione]
% EFF vs. 100 nM INSL3 (c) [1]: 23.13%

O=C1Nc2ccc(-c3cc(C(F)(F)F)ccc3F)cc2C(=O)N2CCN(C(=O)COc3ccc(OC(F)(F)F)cc3Cl)CC12 (racemic) [Example 104, 2-(2-(2-chloro-4-(trifluoromethoxy)phenoxy)acetyl)-8-(2-fluoro-5-(trifluoromethyl)phenyl)-1,3,4,12a-tetrahydrobenzo[e]pyrazino[1,2-a][1,4]diazepine-6,12 (2H, 11H)-dione]
EC50 [2]: 17.7 nM
% EFF vs. 1 nM INSL3 (b) [2]: 67.7%

O=C1Nc2ccc(-c3cc(O)cc(C(F)(F)F)c3)cc2C(=O)N2CCN(C(=O)COc3ccc(OC(F)(F)F)cc3Br)C[C@@H]12 [Example 173, (S)-2-(2-(2-Bromo-4-(trifluoromethoxy)phenoxy)acetyl)-8-(3-hydroxy-5-(trifluoromethyl)phenyl)-1,3,4,12a-tetrahydrobenzo[e]pyrazino[1,2-a][1,4]diazepine-6,12 (2H, 11H)-dione]
EC50 [2]: 64.2 nM
% EFF vs. 1 nM INSL3 (b) [2]: 114.71%

Cc1cc(OC(F)(F)F)ccc1OCC(=O)N1CCN2C(=O)c3cc(-c4cc(Cl)cc(C(F)(F)F)c4)ccc3NC(=O)[C@@H]2C1 [Example 164, (S)-8-(3-chloro-5-(trifluoromethyl)phenyl)-2-(2-(2-methyl-4-(trifluoromethoxy)phenoxy)acetyl)-1,3,4,12a-tetrahydrobenzo[e]pyrazino[1,2-a][1,4]diazepine-6,12 (2H, 11H)-dione]
% EFF vs. 1 nM INSL3 (b) [2]: 126.02%

Cc1cc(OC(F)F)ccc1OCC(=O)N1CCN2C(=O)c3cc(-c4cccc(C(F)(F)F)c4)ccc3NC(=O)[C@@H]2C1 [Example 166, (S)-2-(2-(4-(difluoromethoxy)-2-methylphenoxy)acetyl)-8-(3-(trifluoromethyl)phenyl)-1,3,4,12a-tetrahydrobenzo[e]pyrazino[1,2-a][1,4]diazepine-6,12 (2H, 11H)-dione]
EC50 [2]: 236 nM
% EFF vs. 1 nM INSL3 (b) [2]: 132.67%

O=C1Nc2ccc(-c3cc(Cl)cc(C(F)(F)F)c3)cc2C(=O)N2CCN(C(=O)COc3ccc(OC(F)(F)F)cc3Cl)C[C@@H]12 [Example 163, (S)-2-(2-(2-chloro-4-(trifluoromethoxy)phenoxy)acetyl)-8-(3-chloro-5-(trifluoromethyl)phenyl)-1,3,4,12a-tetrahydrobenzo[e]pyrazino[1,2-a][1,4]diazepine-6,12 (2H, 11H)-dione]
% EFF vs. 1 nM INSL3 (b) [2]: 114.25%

N#Cc1cc(-c2ccc3c(c2)C(=O)N2CCN(C(=O)COc4ccc(OC(F)(F)F)cc4Cl)CC2C(=O)N3)cc(C(F)(F)F)c1 (racemic) [Example 106, 3-(2-(2-(2-chloro-4-(trifluoromethoxy)phenoxy)acetyl)-6,12-dioxo-1,2,3,4,6,11,12,12a-octahydrobenzo[e]pyrazino[1,2-a]1[1,4]diazepin-8-yl)-5-(trifluoromethyl)benzonitrile]
EC50 [2]: 31.5 nM
% EFF vs. 1 nM INSL3 (b) [2]: 50.30%

Cc1cc(OC(F)F)ccc1OCC(=O)N1CCN2C(=O)c3cc(-c4cccc(C(F)F)c4)ccc3NC(=O)[C@@H]2C1 [Example 177, (S)-2-(2-(4-(difluoromethoxy)-2-methylphenoxy)acetyl)-8-(3-(difluoromethyl)phenyl)-1,3,4,12a-tetrahydrobenzo[e]pyrazino[1,2-a][1,4]diazepine-6,12 (2H, 11H)-dione]
% EFF vs. 100 nM INSL3 (c) [1]: 17.49%

Cc1cc(OC(F)(F)F)ccc1OCC(=O)N1CCN2C(=O)c3cc(-c4cccc(C(F)(F)F)c4)ccc3NC(=O)C2C1 (centres unmarked) [Example 64, 2-(2-(2-methyl-4-(trifluoromethoxy)phenoxy)acetyl)-8-(3-(trifluoromethyl)phenyl)-1,3,4,12a-tetrahydrobenzo[e]pyrazino[1,2-a][1,4]diazepine-6,12 (2H, 11H)-dione]
EC50 [3]: 37 to 56.6 nM
% EFF vs. 1 nM INSL3 (a) [3]: 56.29-60.35%

O=C1Nc2ccc(-c3ccc(C(F)(F)F)s3)cc2C(=O)N2CCN(C(=O)COc3ccccc3)CC12 (centres unmarked) [Example 107, 2-(2-phenoxyacetyl)-8-(5-(trifluoromethyl)thiophen-2-yl)-1,3,4,12a-tetrahydrobenzo[e]pyrazino[1,2-a][1,4]diazepine-6,12 (2H, 11H)-dione]
% EFF vs. 1 nM INSL3 (a) [3]: 27.96%

O=C1Nc2ccc(-c3cccc(C(F)F)c3)cc2C(=O)N2CCN(C(=O)COc3ccc(OC(F)(F)F)cc3Br)C[C@@H]12 [Example 178, (S)-2-(2-(2-Bromo-4-(trifluoromethoxy)phenoxy)acetyl)-8-(3-(difluoromethyl)phenyl)-1,3,4,12a-tetrahydrobenzo[e]pyrazino[1,2-a][1,4]diazepine-6,12 (2H, 11H)-dione]
% EFF vs. 100 nM INSL3 (c) [1]: 52.68%

Cc1cc(OC(F)(F)F)ccc1OCC(=O)N1CCN2C(=O)c3cc(-c4cncc(C(F)(F)F)c4)ccc3NC(=O)C2C1 (centres unmarked) [Example 41, 2-(2-(2-methyl-4-(trifluoromethoxy)phenoxy)acetyl)-8-(5-(trifluoromethyl)pyridin-3-yl)-1,3,4,12a-tetrahydrobenzo[e]pyrazino[1,2-a][1,4]diazepine-6,12 (2H, 11H)-dione]
% EFF vs. 1 nM INSL3 (b) [2]: 33.78%

O=C1Nc2ccc(-c3cc(C(F)(F)F)ccc3F)cc2C(=O)N2CCN(C(=O)COc3ccc(OC(F)(F)F)cc3Cl)C[C@H]12 [Example 130, (R)-2-(2-(2-chloro-4-(trifluoromethoxy)phenoxy)acetyl)-8-(2-fluoro-5-(trifluoromethyl)phenyl)-1,3,4,12a-tetrahydrobenzo[e]pyrazino[1,2-a][1,4]diazepine-6,12 (2H, 11H)-dione]
% EFF vs. 1 nM INSL3 (b) [2]: 54.37%

O=C1Nc2ccc(-c3cc(C(F)(F)F)cc(C(F)(F)F)c3)nc2C(=O)N2CCN(C(=O)COc3ccc(OC(F)(F)F)cc3I)C[C@@H]12 (single isomer, unassigned) [Example 206]
EC50 [1]: 563 nM
% EFF vs. 100 nM INSL3 (c) [1]: 60.89%

O=C1Nc2ccc(-c3cccc(C(F)(F)F)c3)cc2C(=O)N2CCN(C(=O)COc3ccc(OC(F)(F)F)cc3Cl)C[C@H]12 [Example 118, (R)-2-(2-(2-chloro-4-(trifluoromethoxy)phenoxy)acetyl)-8-(3-(trifluoromethyl)phenyl)-1,3,4,12a-tetrahydrobenzo[e]pyrazino[1,2-a][1,4]diazepine-6,12 (2H, 11H)-dione]
% EFF vs. 1 nM INSL3 (a) [3]: 43.71%

O=C1Nc2ccc(-c3cccc(C(F)(F)F)c3)cc2C(=O)N2CCN(C(=O)COc3ccc(OC(F)F)cc3F)CC12 (centres unmarked) [Example 55, 2-(2-(4-(difluoromethoxy)-2-fluorophenoxy)acetyl)-8-(3-(trifluoromethyl)phenyl)-1,3,4,12a-tetrahydrobenzo[e]pyrazino[1,2-a][1,4]diazepine-6,12 (2H, 11H)-dione]
EC50 [3]: 24.4 to 59.4 nM
% EFF vs. 1 nM INSL3 (a) [3]: 20.07-42.35%
